Measurements taken from patent US6806264B2, “Arylphenyl-substituted cyclic ketoenols” (Bayer Aktiengesellschaft, priority 1998, dated 2004).

Tests used:
[1] = system: peach aphids (Myzus persicae); assay: Myzus test; assay type: in vivo; conditions: concentration of active compound 0.1 %, infested cabbage leaves (Brassica oleracea) dipped
[2] = system: caterpillars of the army worm (Spodoptera frugiperda); assay: Spodoptera frugiperda test; assay type: in vivo; conditions: concentration of active compound 0.1 %, cabbage leaves (Brassica oleracea) dipped
[3] = system: greenhouse red spidermite (Tetranychus urticae); assay: Tetranychus test (OP-resistant/dip treatment); assay type: in vivo; conditions: concentration of active compound 0.1 %, infested bean plants (Phaseolus vulgaris) dipped, OP-resistant
Method: After the desired period of time, the effect in % is determined.

[4] = system: larvae of the mustard beetle (Phaedon cochileariae); assay: Phaedon larvae test; conditions: concentration of active compound 0.1 %, cabbage leaves (Brassica oleracea) dipped

SMILES	melting point [°C]	Degree of kill in % after 6 days [1] [%]	Degree of kill in % after 7 days [2] [%]	Degree of kill in % after 7 days [3] [%]	Degree of kill in % after 7 days [4] [%]
Cc1ccc(-c2ccc(Cl)cc2)c(C)c1C1=C(O)C2(CCCOC2)NC1=O (stereo not drawn) [Ex. I-1-a-7]	> 250	98	100		100
Cc1ccc(-c2ccccc2)c(C)c1C1=C(O)C2(CCC(C)CC2)NC1=O (stereo not drawn) [Ex. I-1-a-2]	> 240	95			100
COC1CCC2(CC1)NC(=O)C(c1c(C)cc(C)c(-c3ccc(Cl)cc3)c1C)=C2O (stereo not drawn) [Ex. I-1-a-5]	> 240		100		100

The next lines start with results.

melting point [°C]	SMILES	Degree of kill in % after 6 days [1] [%]	Degree of kill in % after 7 days [2] [%]	Degree of kill in % after 7 days [3] [%]	Degree of kill in % after 7 days [4] [%]
> 240	Cc1ccc(-c2ccc(Cl)cc2)c(C)c1C1=C(O)C2(CCC(C)CC2)NC1=O (stereo not drawn) [Ex. I-1-a-3]	98	100	100	100
134	COc1cc(Cl)c(C2=C(O)C3(CCC(OC)CC3)NC2=O)cc1-c1ccccc1 (stereo not drawn) [Ex. I-1-a-13]				100
> 240	COC1CCC2(CC1)NC(=O)C(c1c(C)cc(C)c(-c3ccccc3)c1C)=C2O (stereo not drawn) [Ex. I-1-a-6]	100	100		100
